Activity and GI50 data for 13 compounds are collected here from ChEMBL document CHEMBL1151710, “Sesquiterpenes from the sponge Axinyssa isabela” (2008).

The structures appear in SMILES notation. Activity calls are given as the source filed them. The calls are words filed in the database; no cut-off is given here.

Assay [1] concerns MDA-MB-231. Put plainly: Cytotoxicity against human MDA-MB-231 cells at 10 ug/ml by SRB assay. It counts as functional, cell-based. (The SRB assay estimates cell density from bound dye.)
Assay [2] concerns A549. Put plainly: Cytotoxicity against human A549 cells at 10 ug/ml by SRB assay. The format is functional, cell-based.
In assay [3] the test system is HT-29. Nature of the assay: Cytotoxicity against human HT-29 cells at 10 ug/ml by SRB assay. The format is functional, cell-based.
The subject of assay [4] is MDA-MB-231. Put plainly: Cytotoxicity against human MDA-MB-231 cells by SRB assay. It counts as functional.
Assay [5] deals with A549. Nature of the assay: Cytotoxicity against human A549 cells by SRB assay. It counts as functional.
For assay [6], the system named is HT-29. Nature of the assay: Cytotoxicity against human HT-29 cells by SRB assay. The format is functional.

In the case of `C[C@H]1CC[C@H](O)C2=CC(=O)[C@H]3[C@H](C3(C)C)[C@@]21C`, the outcome in the assay with MDA-MB-231 [1], with A549 [2] and in the assay on HT-29 [3] was inactive.
For `C=C1CCC[C@]2(C)CC[C@@H](C(=C)C)[C@H](N=C=S)[C@@H]12`, the outcome in the assay on MDA-MB-231 [1], in the assay on A549 [2] and with HT-29 [3] was inactive.
Regarding `COc1cccc2c1C(=O)c1c(O)c3c(c(O)c1C2=O)C[C@@](O)(C(=O)CO)C[C@@H]3O[C@H]1C[C@H](N)[C@H](O)[C@H](C)O1` [DOXORUBICIN], the GI50 with MDA-MB-231 [4], in the assay with A549 [5] and in the assay with HT-29 [6] was 0.1 µM each time.
On to `C[C@H]1CC(=O)C=C2[C@H]3O[C@H]3[C@H]3[C@H](C3(C)C)[C@@]21C` [AXINYSONE E], for which the concentration for 50% growth inhibition (GI50) is 38.7 µM with A549 [5] and 38.3 µM in the assay on HT-29 [6].
As for `CC(C)=CCCC(C)(N=C=S)[C@H]1CC=C(C)CC1` (some centres not stated), the result in the assay with MDA-MB-231 [1], in the assay with A549 [2] and in the assay with HT-29 [3] was inactive.
Regarding `C[C@H]1CCCC2=C[C@H](C#N)[C@H]3[C@H](C3(C)C)[C@@]21C`, the outcome with MDA-MB-231 [1], with A549 [2] and in the assay with HT-29 [3] was inactive.
Regarding `C=C(C)[C@]1(OO)CC[C@@]2(C)CCC[C@@](C)(N=C=S)[C@@H]2C1` [AXINISOTHIOCYANATE N], the GI50 came out at 33.3 µM with MDA-MB-231 [4] and 32.6 µM with A549 [5].
Take `C=C(C)[C@H]1CC[C@@]2(C)CCC[C@@](C)(N=C=S)[C@@H]2C1`: the outcome in the assay with MDA-MB-231 [1], in the assay on A549 [2] and with HT-29 [3] was inactive.
For `C=C(C)[C@]1(O)CC[C@@]2(C)CCC[C@@](C)(N=C=S)[C@@H]2C1`, the outcome in the assay on MDA-MB-231 [1], with A549 [2] and with HT-29 [3] was inactive.
With `C[C@H]1CCCC2=CC(=O)[C@H]3[C@H](C3(C)C)[C@@]21C`, the outcome in the assay on MDA-MB-231 [1], in the assay with A549 [2] and with HT-29 [3] was inactive.
Regarding `C[C@H]1CCC[C@]2(O)[C@@H](O)C(=O)[C@H]3[C@H](C3(C)C)[C@]12C`, the outcome with MDA-MB-231 [1], with A549 [2] and in the assay on HT-29 [3] was inactive.
`C[C@H]1CC[C@@H](O)C2=CC(=O)[C@H]3[C@H](C3(C)C)[C@@]21C`: the outcome in the assay on MDA-MB-231 [1], in the assay with A549 [2] and in the assay on HT-29 [3] was inactive.
In the case of `C[C@H]1CC[C@@H](OO)C2=CC(=O)[C@H]3[C@H](C3(C)C)[C@@]21C`, the result with MDA-MB-231 [1], in the assay with A549 [2] and in the assay on HT-29 [3] was inactive.

In general, GI50 refers to the concentration giving 50% growth inhibition.
